These results are taken from patent publication US20260014147A1, “STAT6 DEGRADERS” (Gilead Sciences, Inc., priority 2024, published 2026).

Each structure is given as a SMILES string.

Assay [1] has as its target T1, STAT6 (endogenous, HiBiT-tagged) in HeLa LgBiT clone 4.14 cells (Homo sapiens, UniProt P42226).
T1 construct: These cells express endogenous STAT6; host or cells: HeLa LgBiT clone 4.14
T1 sequence (P42226 1-847): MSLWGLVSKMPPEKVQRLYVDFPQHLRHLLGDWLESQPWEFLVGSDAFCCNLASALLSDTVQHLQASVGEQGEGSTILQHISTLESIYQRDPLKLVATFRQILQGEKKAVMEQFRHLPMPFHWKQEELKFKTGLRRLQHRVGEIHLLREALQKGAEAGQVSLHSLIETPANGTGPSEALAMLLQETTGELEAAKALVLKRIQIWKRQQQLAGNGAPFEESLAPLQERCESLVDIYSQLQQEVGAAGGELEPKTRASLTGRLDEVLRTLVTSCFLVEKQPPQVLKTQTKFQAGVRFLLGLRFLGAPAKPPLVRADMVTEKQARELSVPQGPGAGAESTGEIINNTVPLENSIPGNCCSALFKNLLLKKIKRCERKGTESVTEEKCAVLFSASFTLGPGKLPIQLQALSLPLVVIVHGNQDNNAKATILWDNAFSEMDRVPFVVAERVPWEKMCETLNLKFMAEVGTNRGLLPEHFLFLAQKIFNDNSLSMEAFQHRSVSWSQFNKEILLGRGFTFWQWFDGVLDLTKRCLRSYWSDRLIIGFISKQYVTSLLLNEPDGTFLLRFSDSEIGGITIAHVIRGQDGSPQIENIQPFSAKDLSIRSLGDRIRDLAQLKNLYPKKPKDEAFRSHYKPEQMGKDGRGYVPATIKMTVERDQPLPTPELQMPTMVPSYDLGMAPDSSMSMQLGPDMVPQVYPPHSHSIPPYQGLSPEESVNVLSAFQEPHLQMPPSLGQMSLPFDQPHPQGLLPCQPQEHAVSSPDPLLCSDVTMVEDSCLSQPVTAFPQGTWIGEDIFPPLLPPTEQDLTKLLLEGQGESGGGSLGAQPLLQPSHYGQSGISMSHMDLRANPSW
The experiment in a line: STAT6 Degrader Assay (HiBiT based, HeLa LgBiT clone 4.14 cells, luminescence, DC50). To be noted: geometric mean; for DC50: DC50 provided for test compounds with >80% Emax, read-out: STAT6 degradation DC50; for Emax: Emax provided for test compounds with <80% Emax (and 2c15), read-out: STAT6 degradation Emax. In kind it is cell-based. The method in brief:
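Remaining STAT6 is read as NanoBiT luminescence after 0.5 h with Nano-Glo, in HeLa LgBiT clone 4.14 cells expressing endogenous HiBiT-tagged STAT6, following 4-24 h compound incubation at 37 °C. Full degradation is set by 50 µM terfenadine, which kills the cells; degradation plotted against log compound concentration.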

The test system of assay [2] is Eotaxin-3 (CCL26) release in human whole blood stimulated with IL-4. Description: Human Whole Blood Eotaxin-3 Assay (IL-4 stimulated, inhibition of eotaxin-3 release). It counts as cell-based. The following applies: Homo sapiens, EC50 provided for test compounds with >80% Emax, geometric mean across assay runs and batches. An outline of the steps:
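Lithium-heparin human whole blood preincubated 2 h at 37 °C with compounds (4-fold serial dilution, triplicate, 0.5% DMSO final), then stimulated with 400 pM IL-4 for 48 h. Eotaxin-3 (CCL26) in supernatant quantified by MSD immunoassay.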

As for `CNc1ccc(-c2ccnc3c2cc([C@H](C)N2CC=C(c4c(C)cc(C(=O)N5CCC(CN6CCN(c7ncc(NC8CCC(=O)NC8=O)cc7F)C[C@@H]6C)CC5)cc4F)CC2)n3C)cn1` (stereo partly drawn) [Example 2c45, 3-((5-fluoro-6-((S)-4-((1-(3-fluoro-5-methyl-4-(1-((S)-1-(1-methyl-4-(6-(methyl-amino)pyridin-3-yl)-1H-pyrrolo[2,3-b]pyridin-2-yl)ethyl)-1,2,3,6-tetrahydropyridin-4-yl)benzoyl)-piperidin-4-yl)methyl)-3-methylpiperazin-1-yl)pyridin-3-yl)amino)piperidine-2,6-dione], in assay [1], the DC50 (in general, the midpoint of the concentration-degradation curve) is 0.0213 µM. Moreover, in assay [2], the EC50 (commonly the midpoint of the concentration-response curve) was 0.104 µM.
With `CNc1ccc(-c2ccnc3c2cc([C@H](C)N2CC=C(c4c(C)cc(C(=O)N5CCC(CN6CCN(c7ccc(NC8CCC(=O)NC8=O)c(OC)c7)CC6)CC5)cc4F)CC2)n3C)cn1` (stereo partly drawn) [Example 2c46, 3-((4-(4-((1-(3-fluoro-5-methyl-4-(1-((S)-1-(1-methyl-4-(6-(methylamino)pyridin-3-yl)-1H-pyrrolo[2,3-b]pyridin-2-yl)ethyl)-1,2,3,6-tetrahydropyridin-4-yl)benzoyl)piperidin-4-yl)methyl)piperazin-1-yl)-2-methoxyphenyl)amino)piperidine-2,6-dione], in assay [1], the DC50 is 0.0214 µM. The compound further registered an EC50 in assay [2] of 0.0584 µM.
`COCc1nc2cc(-c3ccnc4c3cc([C@H](C)N3CCC(c5ccc(C(=O)N6CCC(CN7CCN(c8ccc(NC9CCC(=O)NC9=O)cc8F)C[C@H]7C)CC6)cc5)CC3)n4C)ccc2[nH]1` (stereo partly drawn) [Example 2f1, 3-((3-fluoro-4-((R)-4-((1-(4-(1-((S)-1-(4-(2-(methoxymethyl)-1H-benzo[d]imidazol-5-yl)-1-methyl-1H-pyrrolo[2,3-b]pyridin-2-yl)ethyl)piperidin-4-yl)benzoyl)piperidin-4-yl)methyl)-3-methylpiperazin-1-yl)phenyl)amino)piperidine-2,6-dione]: the DC50 in assay [1] stood at 0.0034 µM. The same compound returned an EC50 in assay [2] of 0.025 µM.
For `C[C@@H]1CN(c2ccc(NC3CCC(=O)NC3=O)cc2F)CCN1CC1CCN(C(=O)c2ccc(C3CCN([C@@H](C)c4cc5c(-c6ccc(N)nc6)ccnc5n4C)CC3)cc2)CC1` (stereo partly drawn) [Example 2f2, 3-((4-((R)-4-((1-(4-(1-((S)-1-(4-(6-aminopyridin-3-yl)-1-methyl-1H-pyrrolo[2,3-b]pyridin-2-yl)ethyl)piperidin-4-yl)benzoyl)piperidin-4-yl)methyl)-3-methylpiperazin-1-yl)-3-fluorophenyl)amino)-piperidine-2,6-dione], in that order: 0.0068 µM and 0.037 µM.
Regarding `C[C@@H](c1cc2c(-c3ccc(N)nc3)ccnc2n1C)N1CCC(c2ccc(C(=O)N3CCC(CN4CCC(c5ccc(NC6CCC(=O)NC6=O)cc5F)C(F)(F)C4)CC3)cc2)CC1` (stereo partly drawn) [Example 2m2, 3-((4-(1-((1-(4-(1-((S)-1-(4-(6-aminopyridin-3-yl)-1-methyl-1H-pyrrolo[2,3-b]pyridin-2-yl)-ethyl)piperidin-4-yl)benzoyl)piperidin-4-yl)methyl)-3,3-difluoropiperidin-4-yl)-3-fluorophenyl)amino)-piperidine-2,6-dione], the Emax (usually the size of the effect at its maximum, as opposed to the concentration needed) in assay [1] is 60 to 70%. The compound also gave an EC50 in assay [2] of 0.118 µM.
The like results for `C[C@@H](c1cc2c(-c3ccc(N)nc3)ccnc2n1C)N1CCC(c2ccc(C(=O)N3CCC(CN4CCN(c5ccc(NC6CCC(=O)NC6=O)c(F)n5)CC4)CC3)cc2)CC1` (stereo partly drawn) [Example 2n9, 3-((6-(4-((1-(4-(1-((S)-1-(4-(6-aminopyridin-3-yl)-1-methyl-1H-pyrrolo[2,3-b]pyridin-2-yl)-ethyl)-piperidin-4-yl)benzoyl)piperidin-4-yl)methyl)piperazin-1-yl)-2-fluoropyridin-3-yl)amino)piperidine-2,6-dione] were, in that order, 70 to 80% and 0.141 µM.
In the case of `C[C@@H](c1cc2c(-c3ccc(N)nc3)ccnc2n1C)N1CCC(c2ccc(C(=O)N3CCC(CN4CCN(c5ncc(NC6CCC(=O)NC6=O)cc5F)CC4)CC3)cc2)CC1` (stereo partly drawn) [Example 2n10, 3-((6-(4-((1-(4-(1-((S)-1-(4-(6-aminopyridin-3-yl)-1-methyl-1H-pyrrolo[2,3-b]pyridin-2-yl)ethyl)-piperidin-4-yl)benzoyl)piperidin-4-yl)methyl)piperazin-1-yl)-5-fluoropyridin-3-yl)amino)-piperidine-2,6-dione], the Emax in assay [1] lay within 70 to 80%. In addition, the EC50 in assay [2] amounted to 0.131 µM.
The like results for `COCc1nc2cc(-c3ccnc4c3cc([C@H](C)N3CCC(c5ccc(C(=O)N6CCC(CN7CCN(c8ncc(NC9CCC(=O)NC9=O)cc8F)CC7)CC6)cc5)CC3)n4C)ccc2[nH]1` (stereo partly drawn) [Example 2n12, 3-((5-fluoro-6-(4-((1-(4-(1-((S)-1-(4-(2-(methoxymethyl)-1H-benzo[d]imidazol-5-yl)-1-methyl-1H-pyrrolo[2,3-b]pyridin-2-yl)ethyl)piperidin-4-yl)benzoyl)piperidin-4-yl)methyl)piperazin-1-yl)pyridin-3-yl)amino)piperidine-2,6-dione] were, in that order, 70 to 80% and 0.0409 µM.
With `Cn1c(CN2CCC(c3ccc(C(=O)N4CCn5nc(CN6CCC(c7ccc(NC8CCC(=O)NC8=O)cc7F)CC6)cc5C4)cc3)CC2)cc2c(-c3ccc4[nH]ncc4c3)ccnc21` (stereo not drawn) [Example 2q3, 3-((4-(1-((5-(4-(1-((4-(1H-indazol-5-yl)-1-methyl-1H-pyrrolo[2,3-b]pyridin-2-yl)methyl)-piperidin-4-yl)benzoyl)-4,5,6,7-tetrahydropyrazolo[1,5-a]pyrazin-2-yl)methyl)piperidin-4-yl)-3-fluorophenyl)amino)piperidine-2,6-dione], in assay [1], the DC50 is 0.0027 µM. In assay [2], this compound showed an EC50 of 0.0113 µM.
Regarding `Cn1c(CN2CCC(c3ccc(C(=O)N4CCn5nc(CN6CCC(c7ccc(NC8CCC(=O)NC8=O)cc7F)CC6)cc5C4)cc3)CC2)cc2c(-c3ccc(N)nc3)ccnc21` (stereo not drawn) [Example 2q4, 3-((4-(1-((5-(4-(1-((4-(6-aminopyridin-3-yl)-1-methyl-1H-pyrrolo[2,3-b]pyridin-2-yl)methyl)-piperidin-4-yl)benzoyl)-4,5,6,7-tetrahydropyrazolo[1,5-a]pyrazin-2-yl)methyl)piperidin-4-yl)-3-fluoro-phenyl)amino)piperidine-2,6-dione], the maximal response (Emax) in assay [1] was 70 to 80%. In assay [2], the response was half-maximal at 0.0735 µM (EC50).
On to `C[C@@H](c1cc2c(-c3ccc(N)nc3)ccnc2n1C)N1CCC(c2ccc(C(=O)N3CCn4nc(CN5CCC(c6ccc(NC7CCC(=O)NC7=O)cc6F)CC5)cc4C3)cc2)CC1` (stereo partly drawn) [Example 2q5, 3-((4-(1-((5-(4-(1-((S)-1-(4-(6-aminopyridin-3-yl)-1-methyl-1H-pyrrolo[2,3-b]pyridin-2-yl)ethyl)-piperidin-4-yl)benzoyl)-4,5,6,7-tetrahydropyrazolo[1,5-a]pyrazin-2-yl)methyl)piperidin-4-yl)-3-fluorophenyl)-amino)piperidine-2,6-dione], for which the DC50 in assay [1] was found to be 0.001 µM. Moreover, in assay [2], the EC50 was 0.0023 µM.
The like results for `C[C@@H](c1cc2c(-c3ccc(N)nc3)ccnc2n1C)N1CCC(c2ccc(C(=O)N3CCn4nc(CN5CCC(c6ncc(NC7CCC(=O)NC7=O)cc6F)CC5)cc4C3)cc2)CC1` (stereo partly drawn) [Example 2q6, 3-((6-(1-((5-(4-(1-((S)-1-(4-(6-aminopyridin-3-yl)-1-methyl-1H-pyrrolo[2,3-b]pyridin-2-yl)ethyl)-piperidin-4-yl)benzoyl)-4,5,6,7-tetrahydropyrazolo[1,5-a]pyrazin-2-yl)methyl)piperidin-4-yl)-5-fluoropyridin-3-yl)amino)piperidine-2,6-dione] were, in that order, 0.0056 µM and 0.0199 µM.
